Test [1] concerns the target T1, Cytochrome P450 2A6 (Homo sapiens, UniProt P11509).
T1 sequence (P11509 whole entry): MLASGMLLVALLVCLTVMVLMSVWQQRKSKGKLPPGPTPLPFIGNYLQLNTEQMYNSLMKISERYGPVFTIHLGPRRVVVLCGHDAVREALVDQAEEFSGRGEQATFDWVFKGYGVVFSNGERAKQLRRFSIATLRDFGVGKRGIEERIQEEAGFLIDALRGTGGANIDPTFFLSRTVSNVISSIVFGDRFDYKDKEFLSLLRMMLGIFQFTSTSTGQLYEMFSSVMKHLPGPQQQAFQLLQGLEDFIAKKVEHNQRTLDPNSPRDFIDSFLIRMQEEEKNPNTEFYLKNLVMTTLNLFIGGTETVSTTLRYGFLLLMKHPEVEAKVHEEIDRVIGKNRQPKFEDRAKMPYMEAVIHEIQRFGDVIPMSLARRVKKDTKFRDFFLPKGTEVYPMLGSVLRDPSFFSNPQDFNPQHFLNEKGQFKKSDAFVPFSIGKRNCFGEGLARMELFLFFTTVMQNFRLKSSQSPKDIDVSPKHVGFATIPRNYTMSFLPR
Put plainly: Inhibition Assay. Conditions: pH 7.6; 37 °C. An excerpt: (§1) Inhibition assay using cytochrome P450 enzyme CYP2A6 and CYP2A13.

The target of test [2] is T2, Cytochrome P450 2A13 (Homo sapiens, UniProt Q16696).
T2 sequence (Q16696 whole entry): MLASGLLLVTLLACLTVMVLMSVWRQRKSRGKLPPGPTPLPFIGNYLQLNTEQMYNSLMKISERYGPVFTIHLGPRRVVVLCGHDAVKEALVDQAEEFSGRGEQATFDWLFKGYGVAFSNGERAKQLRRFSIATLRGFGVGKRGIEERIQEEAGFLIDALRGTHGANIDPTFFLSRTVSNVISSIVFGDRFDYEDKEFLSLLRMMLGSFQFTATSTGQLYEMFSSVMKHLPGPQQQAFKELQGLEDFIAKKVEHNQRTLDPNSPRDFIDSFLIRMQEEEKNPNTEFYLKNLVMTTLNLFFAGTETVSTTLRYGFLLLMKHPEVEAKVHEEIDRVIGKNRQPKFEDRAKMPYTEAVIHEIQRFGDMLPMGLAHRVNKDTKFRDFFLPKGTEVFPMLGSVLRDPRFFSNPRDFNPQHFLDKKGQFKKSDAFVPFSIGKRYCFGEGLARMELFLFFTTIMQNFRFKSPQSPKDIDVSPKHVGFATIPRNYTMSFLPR
The test is described as follows: Inhibition Assay. Conditions: pH 7.6; 37 °C.
Description: as §1

“And” between values parts separate entries of the source, which are not always exact repeats. Equal entries are not always repeated. Some results are limits rather than exact numbers.

With `c1cn(CC2CC2)cn1`, the IC50 in test [1] came out at 54 µM; in test [2], 148 µM.

As to `O=C(O)CCCCn1ccnc1`, the IC50 was determined as 178 µM in test [1] and 82 µM in test [2].

For the molecule `CCCn1ccnc1` [1-Subsituted 1H-imidazole, 1], the half-maximal inhibitory concentration (IC50) in test [1] and in test [2] was greater than 300 µM in each case.

With `CCCCn1ccnc1` [1-Subsituted 1H-imidazole, 2], the IC50 turned out to be 8.6 µM in test [1] and 44 µM in test [2]. As to `CCCCCn1ccnc1` [1-Subsituted 1H-imidazole, 3], the IC50 in test [1] stood at 2.1 µM; in test [2], 4.3 µM. In test [1], `CCCCCCn1ccnc1` [1-Subsituted 1H-imidazole, 4] yielded an IC50 of 2.7 µM. For `CCCCCCCn1ccnc1` [1-Subsituted 1H-imidazole, 5], the half-maximal inhibitory concentration (IC50) in test [1] turned out to be 11 µM; in test [2], 3.1 µM. Take `CC(C)CCn1ccnc1` [1-Subsituted 1H-imidazole, 7]: half-maximal inhibition in test [1] (IC50) required 3.1 µM. As to `CC(C)=CCn1ccnc1` [1-Subsituted 1H-imidazole, 9], inhibition in test [1] was half-maximal at 7.7 µM (IC50). Take `CC/C=C/Cn1ccnc1` [1-Subsituted 1H-imidazole, 10]: the values for the IC50 in test [1] and in test [2] were 6.7 µM and 11.4 µM, respectively.

As for `CC/C=C/CCn1ccnc1` [1-Subsituted 1H-imidazole, 12], the half-inhibitory concentration (IC50) in test [1] was 7.1 µM and 11.5 µM; in test [2], 5.5 µM. For `C=CCCCCn1ccnc1` [1-Subsituted 1H-imidazole, 13], the results for the 50% inhibitory concentration (IC50) in test [1] and in test [2] were 1.4 µM and 2.4 µM, respectively.

On to `CC(C)=CCC/C(C)=C\Cn1ccnc1` [1-Subsituted 1H-imidazole, 14], for which the half-inhibitory concentration (IC50) in test [1] and in test [2] was 5.7 µM throughout.

For the molecule `CC#CCn1ccnc1` [1-Subsituted 1H-imidazole, 15], the IC50 is 64 µM in test [1] and 235 µM in test [2].

`CCOC(=O)CCn1ccnc1` [1-Subsituted 1H-imidazole, 17]: the values for the IC50 in test [1] and in test [2] were greater than 300 µM and 238 µM, respectively. For `CCOC(=O)CCCn1ccnc1` [1-Subsituted 1H-imidazole, 18], in that order: greater than 300 µM and 123 µM. In the same order, the values of `OCCCCn1ccnc1` [1-Subsituted 1H-imidazole, 19] are greater than 300 µM and greater than 300 µM. In the same order, the values of `OCCCCCn1ccnc1` [1-Subsituted 1H-imidazole, 20] are 122 µM and greater than 300 µM. For `N#CCCCCn1ccnc1` [1-Subsituted 1H-imidazole, 22], the figures for the IC50 in test [1] and in test [2] were 22.4 µM and 19.1 µM, respectively.

Consider `C=Cn1ccnc1` [1-ethenyl-1H-imidazole], for which the IC50 in test [1] and in test [2] was greater than 300 µM throughout. In the case of `CC(C)=CCCC(C)Cc1ncc[nH]1` (centres undefined) [2-Subsituted 1H-imidazole, 26], the IC50 in test [1] was greater than 300 µM; in test [2], 247 µM.

As for `CCCCCCCCCc1ncc[nH]1` [2-Subsituted 1H-imidazole, 27], the IC50 in test [1] was greater than 300 µM; in test [2], 277 µM. In the same order, the values of `CC/C=C/Cc1ncc[nH]1` [2-Subsituted 1H-imidazole, 28] are greater than 300 µM and 143 µM. With `COc1ccc(-c2ncco2)cc1` [2-Subsituted oxazole, 29], the figures for the IC50 in test [1] and in test [2] were 302 µM and 49 µM, respectively. On to `CCCCCCCCCc1ncco1` [2-Subsituted oxazole, 30], for which the IC50 in test [1] and in test [2] was greater than 300 µM throughout. For `COc1ccc(C2=NCCO2)cc1` [2-Subsituted oxazoline, 31], the half-inhibitory concentration (IC50) in test [1] and in test [2] was greater than 300 µM throughout.

A word on the IC50: it is the point on the concentration scale where inhibition reaches its midpoint. Read a low IC50 as greater potency in that assay.

The values are drawn from BindingDB's records for doi:10.1002/cbic.200800712 (University of Basel, 2009).
